[invAb] = inverted abasic unit; m = 2'-O-methyl; r = 2'-OH (RNA); f = 2'-fluoro
Key:
GATA3 mRNA [1] = assay: GATA3 mRNA knock-down (Taqman qRT-PCR) after RNAiMax transfection of human MCF7 cells; screen and IC50 dose response; type: cell-based; conditions: 10 nM siNA, MCF7 cells, 24 hrs
Procedure: MCF7 (human; ATCC cat# HTB-22): Cells were cultured at 37° C. in the presence of 5% CO2 and grown in Eagle's Minimum Essential medium with supplemented with fetal bovine serum at a final concentration of 10% and 100 μg/mL of streptomycin and 100 U/mL penicillin.
(§1) Cells were plated in all wells of a tissue-culture treated, 96-well plate at a final count of 5000 cells/well in 100 μL of the appropriate culture media. The cells were cultured for 24 hours after plating at 37° C. in the presence of 5% CO2.
(§2) After 24 hours, complexes containing siNA and RNAiMax were created as follows: A solution of RNAiMax diluted 33-fold in OPTI-MEM was prepared. In parallel, solutions of the siNAs for testing were prepared to a final concentration of 120 nM in OPTI-MEM. After incubation of RNAiMax/OPTI-MEM solution at room temperature for 5 min, an equal volume of the siNA solution and the RNAiMax solution were added together for each of the siNAs.
(§3) This solution was incubated at room temperature for 20 minutes. After incubation, 20 uL of the solution was added to each of the relevant wells. The final concentration of siNA in each well was 10 nM and the final volume of RNAiMax in each well was 0.3 ul.
(§4) The time of incubation with the RNAiMax-siNA complexes was 24 hours and there was no change in media between transfection and harvesting, unless otherwise indicated.
(§5) RNA was extracted from a 96-well plate using the TaqMan® Gene Expression Cells-to-CT™ Kit (Cat#4399002) with a modified protocol. Briefly, a 60 uL (1 plate) or 110 uL (2 plates) of the Lysis Solution with DNase I was dispensed into each well of the Lysis Buffer Plate (twin.tec full skirt plate). The lysis buffer and stop plates were stored at 4° C. until the cells were washed.
(§6) The plate was spun at 1100 rpm for 5 minutes. The culture medium was aspirated and discarded from the wells of the culture plate. The lysis was performed automatically using a BioMek FX instrument and method. After the Biomek method was completed, the lysis plate was incubated for 2 min. at room temperature. The lysis plate can be stored for 2 hours at 4° C., or at −20° C. or −80° C. for two months.
(§7) Each well of the reverse transcription plate required 10 uL of 2× reverse transcriptase Buffer, 1 uL of 20× reverse transcription enzyme and 2 uL of nuclease-free water. The reverse transcription master mix was prepared by mixing 2× reverse transcription buffer, 20× reverse transcription enzyme mix, and nuclease-free water. 13 uL of the reverse transcription master mix was dispensed into each well of the reverse transcription plate (semi-skirted). A separate reverse transcription plate was prepared for each cell plate. The plate was loaded onto a Biomek NX or Biomek FX Dual-96 and the Biomek method was run. The program is programmed to automatically added 7 uL of lysate from the cell lysis procedure described above into each well of the reverse transcription plate. The plate is sealed and spun on a centrifuge (1000 rpm for 30 seconds) to settle the contents to the bottom of the reverse transcription plate. The plate is placed in a thermocycler at 37° C. for 60 min, 95° C. for 5 min, and 4° C. until the plate is removed from the thermocycler. Upon removal, if not used immediately, the plate was frozen at −20° C.
(§8) A series of probes and primers were used to detect the various mRNA transcripts of the genes of β-Actin (human cell line only), and of GATA3 and GAPDH in mouse and human cell lines. All Taqman probes and primers for the experiments here-in described were supplied as pre-validated sets by Applied Biosystems, Inc. (see Table 2).
(§9) The assays were performed on an ABI 7900 instrument, according to the manufacturer's instructions. A TaqMan Gene Expression Master Mix (provided in the Cells-to-CT™, Applied Biosystems, Cat #4399002) was used. The PCR reactions were carried out at 50° C. for 2 min, 95° C. for 20 min followed by 40 cycles at 95° C. for 15 secs and 60° C. for 1 min. […]

GATA3 mRNA [2] = assay: GATA3 mRNA knock-down (Taqman qRT-PCR) after RNAiMax transfection of mouse RAG cells; type: cell-based; conditions: 10 nM siNA, 24 hrs, average of 2 experiments
Procedure: RAG (murine; ATCC cat# CCL-142): Cells were cultured at 37° C. in the presence of 5% CO2 and grown in Eagle's Minimum Essential medium with supplemented with 10% of fetal bovine serum, 100 μg/mL of streptomycin, and 100 U/mL penicillin.
as §1, §2, §3, §4, §5, §6, §7, §8, §9

Substance	% KD Human (GATA3 mRNA [1]; average of 3 experiments) [%]	% KD Mouse (GATA3 mRNA [2]) [%]	% KD Human (GATA3 mRNA [1]; * Hs00231122_m1 Taqman Assay)	% KD Human (GATA3 mRNA [1]; ** Hs00922328_m1 Taqman Assay)
30262-DC: GATA3 siNA duplex, site 1818: sense B ccGAuGcAcccGccAuccA TTB (SEQ 77), antisense UGGAuGGcGGGuGcAucGGUU (SEQ 78) (sense CCGAUGCACCCGCCAUCCATT; antisense UGGAUGGCGGGUGCAUCGGUU; chemistry not fully specified)	10 ± 11	1 ± 7		
30264-DC: GATA3 siNA duplex, site 690: sense B GAGGAGGuGGAuGuGcuuu TTB (SEQ 81), antisense AAAGcAcAuccAccuccucUU (SEQ 82) (sense GAGGAGGUGGAUGUGCUUUTT; antisense AAAGCACAUCCACCUCCUCUU; chemistry not fully specified)	−20 ± 12	−18 ± 0		
30265-DC: GATA3 siNA duplex, mouse site 2025: sense B GcccGAAAGcGAcAGAucu TTB (SEQ 83), antisense AGAucuGucGcuuucGGGcUU (SEQ 84) (sense GCCCGAAAGCGACAGAUCUTT; antisense AGAUCUGUCGCUUUCGGGCUU; chemistry not fully specified)	−8 ± 13	58 ± 0		
30266-DC: GATA3 siNA duplex, mouse site 1258: sense B cccuAuGuGcccGAGuAcA TTB (SEQ 85), antisense UGUAcucGGGcAcAuAGGGUU (SEQ 86) (sense CCCUAUGUGCCCGAGUACATT; antisense UGUACUCGGGCACAUAGGGUU; chemistry not fully specified)	−3 ± 5	8 ± 5		
30267-DC: GATA3 siNA duplex, mouse site 1324: sense B GGGuucGGAuGuAAGucGA TTB (SEQ 87), antisense UCGAcuuAcAuccGAAcccUU (SEQ 88) (sense GGGUUCGGAUGUAAGUCGATT; antisense UCGACUUACAUCCGAACCCUU; chemistry not fully specified)	−13 ± 15	40 ± 1		
30268-DC: GATA3 siNA duplex, mouse site 1533: sense B GAcAuccuGcGcGaacuGu TTB (SEQ 89), antisense ACAGuucGcGcAGGAuGucUU (SEQ 90) (sense GACAUCCUGCGCGAACUGUTT; antisense ACAGUUCGCGCAGGAUGUCUU; chemistry not fully specified)	16 ± 3	17 ± 2		
30269-DC: GATA3 siNA duplex, mouse site 1449: sense B cuGcGGAcucuAccAuAAA TTB (SEQ 91), antisense UUUAuGGuAGAGuccGcAGUU (SEQ 92) (sense CUGCGGACUCUACCAUAAATT; antisense UUUAUGGUAGAGUCCGCAGUU; sense: DNA at AGT, 2'-fluoro at CU, [invAb] at 5' end, 3' end, backbone not given here; antisense: sugars from the 5' end rrrmfmmfmmmmfffmfmmmm, backbone not given here)	−36 ± 9	83 ± 0		
30270-DC: GATA3 siNA duplex, mouse site 1960: sense B ccAAGuGuGcGAAGAGuuc TTB (SEQ 93), antisense GAAcucuucGcAcAcuuGGUU (SEQ 94, row printed as 30269-DC) (sense CCAAGUGUGCGAAGAGUUCTT; antisense GAACUCUUCGCACACUUGGUU; chemistry not fully specified)	−25 ± 24	69 ± 4		
30271-DC: GATA3 siNA duplex, mouse site 1620: sense B GuAcuAcAAGcuucAuAAu TTB (SEQ 95), antisense AUUAuGAAGcuuGuAGuAcUU (SEQ 96) (sense GUACUACAAGCUUCAUAAUTT; antisense AUUAUGAAGCUUGUAGUACUU; chemistry not fully specified)	10 ± 11	70 ± 0		
30272-DC: GATA3 siNA duplex, mouse site 807: sense B GAGGuAuccuccGAcccAc TTB (SEQ 97), antisense GUGGGucGGAGGAuAccucUU (SEQ 98) (sense GAGGUAUCCUCCGACCCACTT; antisense GUGGGUCGGAGGAUACCUCUU; chemistry not fully specified)		85 ± 0	69 ± 3* %	33 ± 19** %
30273-DC: GATA3 siNA duplex, mouse site 1489: sense B cuuAucAAGcccAAGcGAA TTB (SEQ 99), antisense UUCGcuuGGGcuuGAuAAGUU (SEQ 100) (sense CUUAUCAAGCCCAAGCGAATT; antisense UUCGCUUGGGCUUGAUAAGUU; sense: DNA at AGT, 2'-fluoro at CU, [invAb] at 5' end, 3' end, backbone not given here; antisense: chemistry not given here)	−3 ± 16	33 ± 1		
30274-DC: GATA3 siNA duplex, mouse site 704: sense B cucAGuAuccGcuGAcGGA TTB (SEQ 101), antisense UCCGucAGcGGAuAcuGAGUU (SEQ 102) (sense CUCAGUAUCCGCUGACGGATT; antisense UCCGUCAGCGGAUACUGAGUU; sense: DNA at AGT, 2'-fluoro at CU, [invAb] at 5' end, 3' end, backbone not given here; antisense: sugars from the 5' end rrrmffmmfmmmfmffmmmmm, backbone not given here)	0 ± 13	−2 ± 4		
30275-DC: GATA3 siNA duplex, mouse site 794: sense B GGGcuAcGGuGcAGAGGuA TTB (SEQ 103), antisense UACcucuGcAccGuAGcccUU (SEQ 104) (sense GGGCUACGGUGCAGAGGUATT; antisense UACCUCUGCACCGUAGCCCUU; sense: DNA at AGT, 2'-fluoro at CU, [invAb] at 5' end, 3' end, backbone not given here; antisense: sugars from the 5' end rrrffffmfmffmfmmfffmm, backbone not given here)	42 ± 8	49 ± 7		
30276-DC: GATA3 siNA duplex, mouse site 678: sense B GGGccucGGccAuucGuAc TTB (SEQ 105), antisense GUAcGAAuGGccGAGGcccUU (SEQ 106) (sense GGGCCUCGGCCAUUCGUACTT; antisense GUACGAAUGGCCGAGGCCCUU; sense: DNA at AGT, 2'-fluoro at CU, [invAb] at 5' end, 3' end, backbone not given here; antisense: sugars from the 5' end rrrfmmmfmmffmmmmfffmm, backbone not given here)	−12 ± 16	−2 ± 6		

Source: patent US20120029054A1, “RNA Interference Mediated Inhibition of GATA Binding Protein 3 (GATA3) Gene Expression Using Short Intefering Nucleic Acid (siNA)” (Merck Sharp & Dohme Corp., priority 2009, published 2012)
